Patent publication US7579012B2, “Targeting of triacylglycerol synthase gene for tuberculosis treatment” (University of Central Florida Research Foundation, Inc., priority 2005, dated 2009)

Target: T1, TGS1 (Mycobacterium tuberculosis, UniProt P9WKC9)
T1 construct: made in house; host or cells: E. coli (total cell lysate, not purified)
T1 sequence (P9WKC9 1-463): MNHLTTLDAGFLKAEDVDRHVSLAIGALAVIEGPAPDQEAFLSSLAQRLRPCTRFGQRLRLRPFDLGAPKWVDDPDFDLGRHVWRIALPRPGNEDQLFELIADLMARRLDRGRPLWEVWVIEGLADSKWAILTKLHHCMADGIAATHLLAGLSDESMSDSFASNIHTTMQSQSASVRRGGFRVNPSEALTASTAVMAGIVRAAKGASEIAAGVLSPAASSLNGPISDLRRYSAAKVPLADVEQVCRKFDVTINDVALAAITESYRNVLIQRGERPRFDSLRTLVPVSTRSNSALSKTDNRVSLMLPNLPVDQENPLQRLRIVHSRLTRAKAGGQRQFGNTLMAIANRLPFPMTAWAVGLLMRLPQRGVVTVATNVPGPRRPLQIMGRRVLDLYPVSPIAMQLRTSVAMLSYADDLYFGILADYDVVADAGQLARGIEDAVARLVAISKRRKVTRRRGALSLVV
Type: biochemical, M. tuberculosis
Conditions: acyl-CoA substrate, pH 6.5, 37° C., 2 h; for Km: from linear double-reciprocal plots

SMILES | Vmax | Km
CCCCCCCC/C=C\CCCCCCCC(=O)SCCNC(=O)CCNC(=O)[C@H](O)C(C)(C)COP(=O)(O)OP(=O)(O)OC[C@H]1O[C@@H](n2cnc3c(N)ncnc32)[C@H](O)[C@@H]1OP(=O)(O)O [C18:1-CoA, oleoyl (C18:1)-CoA] | 1.1 nmol/mg/min | 540 µM
CCCCCCCCCCCCCCCCCCCCCCCCCC(=O)SCCNC(=O)CCNC(=O)[C@H](O)C(C)(C)COP(=O)(O)OP(=O)(O)OC[C@H]1O[C@@H](n2cnc3c(N)ncnc32)[C@H](O)[C@@H]1OP(=O)(O)O [C26:0-CoA, hexacosanoyl (C26:0)-CoA] | 2.4 nmol/mg/min | 306 µM
